{"source": "ChEMBL document CHEMBL1151866", "about": "“Design and synthesis of novel delta opioid receptor agonists and their pharmacologies” (Bioorg Med Chem Lett, 2009)", "key": {"[1]": {"target": "T1, Delta-type opioid receptor (Homo sapiens, UniProt P41143)", "T1 sequence (P41143 whole entry)": "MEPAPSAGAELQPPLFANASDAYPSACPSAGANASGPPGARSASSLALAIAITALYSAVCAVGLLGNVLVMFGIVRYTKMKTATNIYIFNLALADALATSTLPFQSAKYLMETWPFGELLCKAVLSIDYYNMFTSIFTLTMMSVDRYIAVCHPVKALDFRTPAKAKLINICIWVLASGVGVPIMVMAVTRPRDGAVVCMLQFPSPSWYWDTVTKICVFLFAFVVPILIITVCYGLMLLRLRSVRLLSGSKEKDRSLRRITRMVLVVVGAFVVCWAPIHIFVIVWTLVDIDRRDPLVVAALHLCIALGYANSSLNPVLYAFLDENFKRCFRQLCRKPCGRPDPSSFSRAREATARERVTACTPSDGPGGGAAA", "test": "Ratio of EC50 for drug to EC50 for TAN-67 against human recombinant delta opioid receptor"}, "[2]": {"target": "Kappa-type opioid receptor (Cavia porcellus, UniProt P41144)", "sequence (P41144 whole entry)": "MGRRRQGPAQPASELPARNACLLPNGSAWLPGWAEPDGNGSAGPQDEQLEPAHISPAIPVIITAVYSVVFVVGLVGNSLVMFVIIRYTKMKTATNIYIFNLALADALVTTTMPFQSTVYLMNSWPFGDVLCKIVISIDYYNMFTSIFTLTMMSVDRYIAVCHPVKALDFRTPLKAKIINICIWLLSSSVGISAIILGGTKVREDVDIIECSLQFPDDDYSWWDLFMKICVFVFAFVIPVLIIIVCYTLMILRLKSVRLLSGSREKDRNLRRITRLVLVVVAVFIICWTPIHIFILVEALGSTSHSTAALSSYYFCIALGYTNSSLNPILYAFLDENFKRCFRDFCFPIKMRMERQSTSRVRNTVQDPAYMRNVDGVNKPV", "test": "Displacement of [3H]U-69593 from kappa opioid receptor in guinea pig cerebellum", "format": "tissue-based"}, "Rattus norvegicus": {"species_on_record": "Rattus norvegicus", "test": "Selectivity ratio of Ki for mu opioid receptor in rat cerebellum membrane to Ki for delta opioid receptor in rat cerebellum membrane", "format": "cell membranes"}, "[3]": {"target": "T1, Delta-type opioid receptor", "test": "Agonist activity at human recombinant delta opioid receptor expressed in HEK293 cells by [35S]GTPgammaS binding assay", "format": "functional, cell-based"}, "[4]": {"target": "Delta-type opioid receptor (Rattus norvegicus, UniProt P33533)", "sequence (P33533 whole entry)": "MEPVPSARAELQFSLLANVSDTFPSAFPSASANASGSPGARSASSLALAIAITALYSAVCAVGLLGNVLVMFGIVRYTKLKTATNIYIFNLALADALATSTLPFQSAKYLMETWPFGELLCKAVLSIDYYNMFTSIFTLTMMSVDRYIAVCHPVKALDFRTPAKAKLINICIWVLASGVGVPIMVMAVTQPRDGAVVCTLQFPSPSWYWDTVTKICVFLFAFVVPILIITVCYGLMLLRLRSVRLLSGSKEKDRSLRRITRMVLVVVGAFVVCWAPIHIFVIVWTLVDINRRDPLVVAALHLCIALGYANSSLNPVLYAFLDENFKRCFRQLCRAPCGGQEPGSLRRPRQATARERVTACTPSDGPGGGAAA", "test": "Displacement of [3H]DADLE from delta opioid receptor in rat cerebellum membrane", "format": "cell membranes"}, "Mu-type opioid receptor": {"target": "Mu-type opioid receptor (Rattus norvegicus, UniProt P33535)", "sequence (P33535 whole entry)": "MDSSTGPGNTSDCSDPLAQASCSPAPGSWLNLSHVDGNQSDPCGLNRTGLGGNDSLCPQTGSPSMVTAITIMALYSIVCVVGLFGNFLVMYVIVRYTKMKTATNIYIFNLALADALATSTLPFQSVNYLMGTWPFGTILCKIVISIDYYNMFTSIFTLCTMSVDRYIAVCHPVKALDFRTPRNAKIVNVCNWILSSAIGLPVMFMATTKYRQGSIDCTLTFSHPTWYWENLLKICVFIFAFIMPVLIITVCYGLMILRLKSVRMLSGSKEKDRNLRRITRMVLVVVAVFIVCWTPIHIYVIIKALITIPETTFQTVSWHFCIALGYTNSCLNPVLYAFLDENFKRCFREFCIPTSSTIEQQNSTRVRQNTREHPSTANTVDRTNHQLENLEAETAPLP", "test": "Displacement of [3H]DAMGO from mu opioid receptor in rat cerebellum membrane", "format": "cell membranes"}, "[5]": {"test": "Selectivity ratio of Ki for kappa opioid receptor in guinea pig cerebellum to Ki for delta opioid receptor in rat cerebellum membrane", "format": "cell membranes"}, "[6]": {"target": "T1, Delta-type opioid receptor", "test": "Agonist activity at human recombinant delta opioid receptor expressed in CHO cells by [35S]GTPgammaS binding assay", "format": "functional, cell-based"}, "Mus musculus": {"tested_on": "Mus musculus", "test": "Analgesic activity against acetic acid-induced writhing in sc dosed mouse", "format": "functional"}}}
{"smiles": "Oc1ccc2c(c1)[C@]13CCN(CC4CC4)[C@H](C2)[C@@H]1Cc1cc2ccccc2nc1C3", "values": [{"measurement": "Ratio EC50", "setting": "[1]", "value": 10}, {"measurement": "Ki", "setting": "[2]", "value": 0.36, "unit": "nM"}, {"measurement": "Ratio", "setting": "Rattus norvegicus", "value": 4.1}, {"measurement": "EC50", "setting": "[3]", "value": 0.018, "unit": "nM"}, {"measurement": "Ki", "setting": "[4]", "value": 0.19, "unit": "nM"}, {"measurement": "Ki", "setting": "Mu-type opioid receptor", "value": 0.77, "unit": "nM"}, {"measurement": "Ratio", "setting": "[5]", "value": 1.9}]}
{"smiles": "CN1CC[C@]2(c3cccc(O)c3)Cc3nc4ccccc4cc3C[C@H]2C1", "values": [{"measurement": "Ki", "setting": "[2]", "value": 732, "unit": "nM"}, {"measurement": "Ratio", "setting": "Rattus norvegicus", "value": 197}, {"measurement": "EC50", "setting": "[3]", "value": 0.7, "unit": "nM"}, {"measurement": "EC50", "setting": "[6]", "value": 1.4, "unit": "nM"}, {"measurement": "Ki", "setting": "[4]", "value": 1.44, "unit": "nM"}, {"measurement": "Ki", "setting": "Mu-type opioid receptor", "value": 284, "unit": "nM"}, {"measurement": "ED50", "setting": "Mus musculus", "value": 31.4, "unit": "mg/kg"}, {"measurement": "Ratio", "setting": "[5]", "value": 509}]}
{"smiles": "CC(C)CN1CC[C@]23Cc4nc5ccccc5cc4C[C@H]2[C@H]1Cc1ccc(O)cc13", "values": [{"measurement": "Ratio EC50", "setting": "[1]", "value": 10}, {"measurement": "Ki", "setting": "[2]", "value": 4.41, "unit": "nM"}, {"measurement": "Ratio", "setting": "Rattus norvegicus", "value": 124}, {"measurement": "EC50", "setting": "[3]", "value": 0.06, "unit": "nM"}, {"measurement": "Ki", "setting": "[4]", "value": 0.19, "unit": "nM"}, {"measurement": "Ki", "setting": "Mu-type opioid receptor", "value": 23.6, "unit": "nM"}, {"measurement": "Ratio", "setting": "[5]", "value": 23.2}]}
{"smiles": "CN1CC[C@]23Cc4nc5ccccc5cc4C[C@H]2[C@H]1Cc1ccc(O)cc13", "values": [{"measurement": "Ratio EC50", "setting": "[1]", "value": 10}, {"measurement": "Ki", "setting": "[2]", "value": 10.2, "unit": "nM"}, {"measurement": "Ratio", "setting": "Rattus norvegicus", "value": 82.4}, {"measurement": "EC50", "setting": "[3]", "value": 0.047, "unit": "nM"}, {"measurement": "Ki", "setting": "[4]", "value": 0.14, "unit": "nM"}, {"measurement": "Ki", "setting": "Mu-type opioid receptor", "value": 11.5, "unit": "nM"}, {"measurement": "Ratio", "setting": "[5]", "value": 72.9}]}
